Measured values taken from patent US11534506B2, “Methods for cell labeling and medical imaging” (priority 2015, dated 2022).
Entries after “also recorded” stand apart in the source; their conditions may differ. Like-named read-outs stand apart in the source and are kept apart here.

Experiments:
[1] = system: mMCs, hMSCs and mDCs; test: ApoTox-Glo viability/cytotoxicity and caspase 3/7 apoptosis assay; format: cell-based, mouse, human; conditions: 2 μM for 16 hours
Procedure: The effect of radiolabeling on cellular viability was also assessed using the ApoTox-Glo viability, cytotoxicity and caspase 3/7 apoptosis assay (Promega Corporation, Madison, Wis., USA). Unlabeled cells served as control. A known number of unlabeled and ^89Zr-labeled cells (˜10^4/well) were plated in a 96-well culture plate. The culture medium was replaced daily and maintained at 37° C. in a CO2 incubator. At day 7, cell viability, cytotoxicity and apoptosis was quantified in triplicate using the ApoTox-Glo assay. As positive controls, cells were incubated with 30 μg/mL digitonin for 30 minutes for the viability and cytotoxicity assays, while 2 μM staurosporine was added for 16 hours for the caspase 3/7 dependent apoptosis assay.

[2] = system: macrophages, breast cancer cells, and myeloma cells; conditions: at 24 hours; cited from earlier work
[3] = system: myeloma cells and natural killer cells; conditions: cited from earlier work
[4] = system: natural killer cells; conditions: cited from earlier work
[5] = system: 5T33 myeloma cells; conditions: cited from earlier work
[6] = system: human mesenchymal stem cells (hMSCs); test: Labeling of cells with ^89Zr-DBN (cell-bound radioactivity); format: cell-based; conditions: 6×10^6 cells incubated 30 minutes with ~6 MBq
Procedure: (§1) B16-F10 Mouse melanoma cells (mMCs) from ATCC, Manassas, Va., USA, human mesenchymal stem cells (hMSCs) from patients and JAWSII mouse dendritic cells (mDCs) from ATCC, Manassas, Va., USA, were used for evaluating the ^89Zr-DBN based labeling method. The mMCs and hMSCs were cultured in complete DMEM (DMEM+10% FBS) and mDCs were cultured in complete alphaMEM (alpha MEM+4 mM L-glutamine+1 mM sodium pyruvate+5 ng/mL murine GM-CSF+20% FBS). The cultures were maintained in a humidified cell culture chamber (21% O2, 74% N2, 5% CO2) at 37° C.
(§2) The adherent cells were trypsinized and washed once with PBS and twice with HEPES buffered GIBCO Hanks Balanced Salt solution buffered (ThermoFisher, Atlanta, Ga., USA) (H-HBSS), pH 7.5. The cell labeling reaction was performed with ˜6×10^6 cells in 500 μl H-HBSS at pH 7.5. […]. After incubation, the cells were washed 4 times with appropriate volume of complete medium. The final labeling efficiency was calculated from the radioactivity bound to cells after all the washes.

[7] = system: B16-F10 Mouse melanoma cells (mMCs); test: as above; format: cell-based; conditions: 6×10^6 cells incubated 30 minutes with ~6 MBq
Procedure: as §1, §2

[8] = system: JAWSII mouse dendritic cells (mDCs); test: as above; format: cell-based; conditions: 6×10^6 cells incubated 30 minutes with ~6 MBq
Procedure: as §1, §2

[9] = system: mMCs, hMSCs and mDCs; test: Efflux of ^89Zr-DBN from labeled cells; conditions: over 7 days post-labeling, medium replaced daily
Procedure: The medium was replaced with fresh medium daily for 7 days and radioactivity in the replaced medium was counted. For mDCs with mix of adherent and suspension cells, the plate was centrifuged at 1000 rpm for 10 minutes before replacing the medium to avoid loss of unattached ^89Zr-labeled cells.

[10] = system: mMCs, hMSCs and mDCs; test: Labeling of cells with ^89Zr(HPO4)2 and ^89Zr-DBN, labeling efficiency over all cell types; format: cell-based, mouse, human
Procedure: The adherent cells were trypsinized and washed once with PBS and twice with HEPES buffered GIBCO Hanks Balanced Salt solution buffered (ThermoFisher, Atlanta, Ga., USA) (H-HBSS), pH 7.5. The cell labeling reaction was performed with ˜6×10^6 cells in 500 μl H-HBSS at pH 7.5. […] After incubation, the cells were washed 4 times with appropriate volume of complete medium. The final labeling efficiency was calculated from the radioactivity bound to cells after all the washes.

[11] = system: scAAV1-Cre and AAV2-GFP; test: Labeling of adeno-associated viruses with ^89Zr-DBN; conditions: after 30 minutes of labeling
Procedure: Post-labeling, the ^89Zr-DBN-AAVs were purified from free label and reaction mixture using size exclusion PD-10 desalting columns. The eluted virus in fractions were quantified using protein assay and radioactivity elution pattern was recorded.

[12] = system: mMCs, hMSCs and mDCs; test: Incorporation of ^89Zr-DBN in protein fraction (subcellular protein fractionation); format: cell-based, mouse, human; conditions: days 1, 4 and 7 after labeling; all cell types studied
Procedure: To understand the sub-cellular localization of the label, incorporation of ^89Zr-DBN into different protein fractions in mMCs, hMSCs and mDCs was evaluated using a subcellular protein fractionation kit (Piercenet Thermo Scientific) at day 1, 4 and 7 post-labeling. The cytosolic proteins, hydrophobic membrane proteins, nuclear proteins and cytoskeletal proteins were isolated and each protein fraction was counted for radioactivity using a 2480 Wizard^2 automatic gamma counter (Perkin Elmer, Waltham, Mass., USA).

[13] = system: Leukocytes, Lymphocytes, HPCs; conditions: in 30 minutes; cited from earlier work
[14] = system: lymphocytes; conditions: cited from earlier work
[15] = system: hematopoietic progenitor cells (HPCs); conditions: in 24-96 hours; cited from earlier work
[16] = system: C6 glioma cells; conditions: cited from earlier work

Q: Which “apoptosis (caspase 3/7), positive control” value [1] does the source give for `CN[C@@H]1C[C@H]2O[C@@](C)([C@@H]1OC)n1c3ccccc3c3c4c(c5c6ccccc6n2c5c31)C(=O)NC4` [staurosporine] here?
A: apoptosis was increased

Q: For `c1cnc2c([O][89Zr]([O]c3cccc4cccnc34)([O]c3cccc4cccnc34)[O]c3cccc4cccnc34)cccc2c1` [^89Zr-oxine], which efflux [2] is on record?
A: 10-29%

Q: What about the cell labeling yield ([3]; in 30 minutes) of the same compound?
A: ~32% cell labeling yield in 30

Q: And the “cell viability after labeling” value ([3]; possibly due to oxine exposure)?
A: Loss of cell viability possibly

Q: And the “viability of radiolabeled cells” value ([4]; after 6 days)?
A: 20-30%

Q: And the “viability of radiolabeled cells” value ([4]; over the first 24 hours)?
A: 60-100%

Q: And the “viability of labeled cells” value ([5]; in first 24 hours)?
A: 76.3±3.2%

Q: And the “viability of labeled cells, initial” value ([5]; starting value before the decline)?
A: 93%

Q: What does the source list for “^89Zr-labeled p-isothiocyanato-benzyl-desferrioxamine [^89Zr-DBN]”?
A: Radioactivity concentration of labeled cells [6]: 0.47±0.10 MBq/10^6 cells; Radioactivity concentration of labeled cells [7]: 0.50±0.10 MBq/10^6 cells; Radioactivity concentration of labeled cells [8]: 0.39±0.20 MBq/10^6 cells; efflux of ^89Zr-radioactivity from labeled cells [9]: negligible efflux; also recorded: no efflux of radiolabel was observed; Radioactivity concentrations of labeled cells achieved without a negative effect on cellular viability [10]: up to 0.5 MBq/1×10^6 cells; cell labeling efficiency ([10]; 30 minutes labeling at 37° C., ~6×10^6 cells, ~6 MBq, cell-bound radioactivity after washes, depending on cell type): 30-50%; viral labeling yield (radioactivity concentration) [11]: ~20 mCi/10^14 viral particles; ^89Zr-radioactivity incorporated in hydrophobic membrane protein fraction [12]: ~99%

Q: Which results are given for `[In+3].[O-]c1cccc2cccnc12.[O-]c1cccc2cccnc12.[O-]c1cccc2cccnc12` [^111In-oxine]?
A: cell labeling yield [13]: ~80% cell labeling yield in 30; extent of efflux (as high as) ([14]; in 24-96 hours): 70-80%; effluxed radioactivity ([14]; in 24 hours): (~70% effluxed in 24 hours); extent of efflux (as high as) [15]: 70-80%

Q: Which “extent of efflux (as high as)” value ([16]; C6 glioma cells, in 24-96 hours) does the source give for `CNC(=S)NN=CC(C)=NNC(=S)NC.[64Cu]` [^64Cu-PTSM, ^64Cu-pyruvaldehyde-bis(N4-methylthiosemicarbazone)] here?
A: 70-80%

Q: What about the cell labeling yield ([16]; in 5 hours) of the same compound?
A: 70-85% cell labeling yield in

Q: What about the effluxed radioactivity ([16]; in 24 hours) of the same compound?
A: cells (~80% effluxed in 24
